These results are taken from patent US20040092566A1, “Celecoxib prodrug” (priority 2002, published 2004).

Data set [1] addresses COX-1 (Homo sapiens, UniProt P23219). Particulars: background statement; cited from earlier work.

Chain of COX-1 (P23219 24-599): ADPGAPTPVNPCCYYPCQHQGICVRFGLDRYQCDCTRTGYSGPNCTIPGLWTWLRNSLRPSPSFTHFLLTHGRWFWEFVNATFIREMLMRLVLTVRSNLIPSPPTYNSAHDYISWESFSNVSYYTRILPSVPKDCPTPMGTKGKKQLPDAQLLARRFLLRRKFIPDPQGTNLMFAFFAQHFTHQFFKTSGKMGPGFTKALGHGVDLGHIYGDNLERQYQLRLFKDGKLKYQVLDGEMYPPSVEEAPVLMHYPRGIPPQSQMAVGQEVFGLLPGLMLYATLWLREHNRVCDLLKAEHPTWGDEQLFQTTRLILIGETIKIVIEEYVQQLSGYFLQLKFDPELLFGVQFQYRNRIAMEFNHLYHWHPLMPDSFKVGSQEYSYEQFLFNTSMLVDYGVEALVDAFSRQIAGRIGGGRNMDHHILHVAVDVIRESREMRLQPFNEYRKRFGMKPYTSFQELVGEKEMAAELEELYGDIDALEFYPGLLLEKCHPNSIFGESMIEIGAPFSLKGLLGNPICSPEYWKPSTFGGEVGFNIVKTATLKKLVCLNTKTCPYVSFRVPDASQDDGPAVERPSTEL

In the case of `CCC(=O)[N-]S(=O)(=O)c1ccc(-n2nc(C(F)(F)F)cc2-c2ccc(C)cc2)cc1.[Na+]` [compound Z, 4-[5-(4-methylphenyl)-3-(trifluoromethyl)-1H-pyrazol-1-yl]-N-propionylbenzenesulfonamide, sodium salt], the melting point is > 300 °C. Turning to `Cc1onc(-c2ccccc2)c1-c1ccc(S(N)(=O)=O)cc1` [valdecoxib], the “in vitro inhibitory activity against COX-1” value in data set [1] was “weak”. As for `CCC(=O)NS(=O)(=O)c1ccc(-n2nc(C(F)(F)F)cc2-c2ccc(C)cc2)cc1` [compound (V), N-[[4-[5-(4-methylphenyl)-3-(trifluoromethyl)-1H-pyrazol-1-yl]phenyl]-sulfonyl]propanamide], the melting point is 88.3 to 96.7 °C. As to `CCC(=O)NS(=O)(=O)c1ccc(-c2c(-c3ccccc3)noc2C)cc1` [Parecoxib], the “in vitro inhibitory activity against COX-1” value in data set [1] is listed as “weak”.
